Results published in ChEMBL document CHEMBL1151636, “Atractyloside, toxic compound from Wedelia glauca” (J Nat Prod, 1984).

System: Mus musculus
Assay: Toxicity in ip dosed mouse assessed as respiratory arrest
Assay type: organism-based
Conditions: in vivo

SMILES: C=C1[C@@H]2CCC3[C@@](CC[C@@H]4[C@H](C(=O)O)C[C@@H](O[C@@H]5O[C@H](CO)[C@@H](OS(=O)(=O)[O-])[C@H](OS(=O)(=O)[O-])[C@H]5OC(=O)CC(C)C)C[C@@]34C)(C2)[C@@H]1O.[K+].[K+] (stereo partly specified) [ATRACTYLOSIDE]
- Activity: Toxic
